# Experiments:
# [1] = target: T1, Human hemoglobin (Homo sapiens, UniProt P68871+P69905); assay: Reversible acylation of hemoglobin by compound 13 (HPLC profile); format: biochemical
# T1 construct: purchased Sigma H7379
# Experimental: The mixtures are created as described below, where experiments AL600 1× to AL 600 0.25× respectively correspond to 33 μg hemoglobin reacted with increasing concentrations of the azaisatoic compound in a mixture of DMSO and PBS at pH 7.4 (PBS=Phosphate buffered saline resulting from dissolving a tablet, reference Sigma P4417, in 200 ml water (pH 7.4)) The mixtures are incubated at room temperature for 2 hours before collecting an aliquot for HPLC analysis on a Waters XBridge BEH C4 300 column (Milford. USA), with a gradient of 20 to 72% acetonitrile in a solution of 10 mM trifluoroacetic acid, at 120 min.
# One can clearly see, as before, that acylation of the hemoglobin leads to formation of a mass of acylated protein and then this mass disappears after heat treatment in order to regenerate the native protein.
# [2] = target: T2, Taq polymerase (Thermus aquaticus, UniProt P19821); assay: Polymerase activity of TAQ modified by compound 13 (hairpin probe elongation fluorescence); format: biochemical; settings: AL 604 0.375x
# T2 construct: purchased Genscript E00012
# Experimental: We used the Genscript Taq (2500 u/100 μl REF E00012), but in order to eliminate all traces of nucleophiles in this enzyme we did a change of buffer beforehand by passing through an Amicon 10 KD microcon (no. 42407). The enzyme suspension was thus deposited on the microcon and centrifuged until buffer depletion Five washes were performed with […] PBS pH 7.4, then the last retentate was recovered by inverting the tube and made up to QSP 20 μl with PBS to obtain a suspension at 125 u/μl. […]
# The polymerization activity of the TAQ polymerase is determined using an oligonucleotide probe of 45 bases terminated by a “hairpin” structure. This is characterized by the presence of a fluorescence quencher at the beginning of the structure and a fluorophore at the end of the probe sequence, such that the quencher is spatially close to the fluorophore and no fluorescence signal can be measured in this configuration. […] Due to the elongation action, the probe hairpin structure is unfolded and the fluorophore is able to emit, and fluorescence is then measurable. This fluorescence measurement is carried out at a temperature of 60° C. for 20 minutes in the presence of the reagents required for activity of the enzyme, meaning dNTP, MgCl2, and a basic buffer at pH 9.5. […]
# The ability to restore the activity of the enzyme after heating for 15 min at 95° C. for example is readily measurable by the same method.
# [3] = Cleavage at 95° C. of aza-anthranilate amides and release of phenylethylamine under hot start PCR conditions (LCMS/HPLC monitoring); format: physicochemical; settings: 60 mM Tris pH 9 PCR buffer
# Experimental: Into a 1.5 mL tube are added: 20 μL 2.5 mM amide solution (10, 14 or 19) in DMSO and 180 μL of a buffer conventionally used in a genetic material amplification reaction (60 mM Tris pH 9, 50 mM […], 1 mM MgCl2). The mixture is then stirred at 95° C. in a thermomixer. LCMS monitoring (condition 1) is performed at t=15 min, 30 min, and 1 h
# Thermal deprotection of the phenoxyacetate group leads to formation of the corresponding benzyl alcohol (see Diagram 7). The nucleophilic attack of alcohol on the carbonyl involved in the amide bond then allows releasing the phenylethylamine into the medium by generating the corresponding lactone.
# This derivative can then be cyclized to form the corresponding […] by releasing phenylethylamine into the medium (Diagram 9 above).
# T2 sequence (P19821 whole entry): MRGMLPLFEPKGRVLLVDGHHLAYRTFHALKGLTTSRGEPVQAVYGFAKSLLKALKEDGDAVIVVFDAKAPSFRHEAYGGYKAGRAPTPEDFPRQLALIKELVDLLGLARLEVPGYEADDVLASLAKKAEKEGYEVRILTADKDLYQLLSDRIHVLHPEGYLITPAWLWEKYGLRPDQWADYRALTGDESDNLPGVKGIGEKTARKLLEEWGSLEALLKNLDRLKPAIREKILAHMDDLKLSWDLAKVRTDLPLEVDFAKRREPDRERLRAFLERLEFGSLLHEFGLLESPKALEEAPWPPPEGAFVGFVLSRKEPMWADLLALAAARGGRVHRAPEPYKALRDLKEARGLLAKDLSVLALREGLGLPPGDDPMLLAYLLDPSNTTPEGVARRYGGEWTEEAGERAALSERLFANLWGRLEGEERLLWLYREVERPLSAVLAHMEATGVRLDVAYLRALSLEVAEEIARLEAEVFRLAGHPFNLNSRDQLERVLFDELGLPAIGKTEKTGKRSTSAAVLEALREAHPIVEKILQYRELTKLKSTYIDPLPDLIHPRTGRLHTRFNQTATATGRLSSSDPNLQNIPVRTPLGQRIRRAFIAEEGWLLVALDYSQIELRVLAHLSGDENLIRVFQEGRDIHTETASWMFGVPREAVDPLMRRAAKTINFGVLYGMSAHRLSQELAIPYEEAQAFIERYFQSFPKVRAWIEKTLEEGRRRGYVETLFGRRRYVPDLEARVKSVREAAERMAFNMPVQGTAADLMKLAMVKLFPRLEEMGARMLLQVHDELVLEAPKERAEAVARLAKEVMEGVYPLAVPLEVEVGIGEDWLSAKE
# T1 sequence (P69905 2-142 limits assumed): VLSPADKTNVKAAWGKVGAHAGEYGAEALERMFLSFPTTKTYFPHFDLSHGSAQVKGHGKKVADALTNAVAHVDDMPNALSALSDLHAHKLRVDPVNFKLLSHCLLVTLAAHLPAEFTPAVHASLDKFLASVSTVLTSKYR
# T1 sequence (P68871 2-147 limits assumed): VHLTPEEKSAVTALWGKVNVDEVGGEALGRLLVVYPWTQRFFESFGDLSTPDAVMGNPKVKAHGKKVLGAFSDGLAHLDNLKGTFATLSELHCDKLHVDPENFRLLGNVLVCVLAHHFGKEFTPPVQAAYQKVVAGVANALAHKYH
compound,measurement,setting,value
"Cn1c(=O)oc(=O)c2c(COC(=O)COc3ccc(F)cc3)c(I)cnc21 [compound 13, (6-iodo-1-methyl-2,4-dioxo-2,4-dihydro-1H-pyrido[2,3-d][1,3]oxazine-5-yl) methyl 2-(4-fluorophenoxy)acetate]",acylation of hemoglobin (HPLC chromatogram),"[1]; 33 μg hemoglobin, AL 600 0.25x-1x, DMSO/PBS pH 7.4, room temperature, 2 hours",disappearance of the protein portion in favor of a massive shift to the right
same,reversal of the acylation of hemoglobin after heat treatment (HPLC chromatogram),"[1]; AL 600 1x, 95° C. for 15 min in PCR buffer (Tris pH9), taken up in 8M GuHCl",restoring the chromatographic profile of the native hemoglobin
same,"polymerase activity of Taq after acylation, without activation","[2]; 625 units Taq, DMSO/PBS pH 7.4, 3 hours room temperature, measured at 60° C. for 20 minutes",completely inactivated
same,polymerase activity of Taq after acylation and heat activation,[2]; after treatment at 95° C. for 15 min under hot start PCR conditions,restored
"CNc1ncc(I)c(COC(=O)COc2ccccc2)c1C(=O)NCCc1ccccc1 [derivative 10, (5-iodo-2-(methylamino)-3-(phenethylcarbamoyl)pyridine-4-yl)methyl 2-phenoxyacetate]",species observed by HPLC after heating (cleavage of the amide derivative),"[3]; 15 minutes at 95° C., 10% DMSO",formation of the deprotected alcohol and the expected lactone
same,population of the initial amide and the alcohol,[3]; 1 h at 95° C.,almost completely disappeared
"CNc1ncc(I)c(COC(=O)COc2ccc(F)cc2)c1C(=O)NCCc1ccccc1 [derivative 14, (5-iodo-2-(methylamino)-3-(phenethylcarbamoyl)pyridine-4-yl)methyl 2-(4-fluorophenoxy)acetate]",amide population,[3]; 15 minutes at 95° C.,very low
same,amide population,[3]; 30 minutes at 95° C.,almost completely disappeared
"CNc1ncc(I)c(CNC(=O)OC(C)(C)C)c1C(=O)NCCc1ccccc1 [derivative 19, tert-butyl ((5-iodo-2-(methylamino)-3-(phenethylcarbamoyl)pyridine-4-yl)methyl)carbamate]",non-cyclized deprotected form (intermediate amine) on HPLC monitoring,[3]; 95° C.,not detected
